Assay results as given in PMC7587356, “High-Throughput Screening for Inhibitors of the SARS-CoV-2 Protease Using a FRET-Biosensor” (Molecules, 2020).
Structures can show the parent of a compound that is named as a salt. Where two headings read alike, the source gives them in different places.

Target: SARS-CoV-2 3CLpro (Severe acute respiratory syndrome coronavirus 2, UniProt P0DTD1)
Experiment: biochemical
Assay type: biochemical
Set-up: Replicate_1 / Replicate_2 / mean / mean (LOPAC_screen_w_protease): unit not given here
Settings: for inhibition at 5 µM: 4 h
[1] = sheet LOPAC_screen_w_protease, LOPAC1280 primary screen at 5 µM, with protease, mean of the two replicates, read-out: mean
[2] = sheet LOPAC_screen_w_protease, LOPAC1280 primary screen at 5 µM, with protease, replicate 1, read-out: Replicate_1
[3] = sheet LOPAC_screen_w_protease, LOPAC1280 primary screen at 5 µM, with protease, replicate 2, read-out: Replicate_2
[4] = LOPAC1280 primary screen with protease, 5 µM compound, mean of two replicates
[5] = LOPAC1280 primary screen with protease, 5 µM compound, replicate 1
[6] = LOPAC1280 primary screen with protease, 5 µM compound, replicate 2
[7] = sheet LOPAC_screen_w_protease, LOPAC1280 primary screen with protease, 5 µM compound, mean of the two replicates
[8] = sheet LOPAC_screen_w_protease, LOPAC1280 primary screen with protease, 5 µM compound, replicate 1
[9] = sheet LOPAC_screen_w_protease, LOPAC1280 primary screen with protease, 5 µM compound, replicate 2
[10] = sheet LOPAC_screen_w_protease, primary screen at 5 µM, mean of two replicates
[11] = sheet LOPAC_screen_w_protease, primary screen at 5 µM, replicate 1
[12] = sheet LOPAC_screen_w_protease, primary screen at 5 µM, replicate 2
[13] = sheet LOPAC_screen_w_protease, primary screen with protease, 5 µM, mean of two replicates
[14] = sheet LOPAC_screen_w_protease, primary screen with protease, 5 µM, replicate 1
[15] = sheet LOPAC_screen_w_protease, primary screen with protease, 5 µM, replicate 2
[16] = sheet LOPAC_screen_w_protease, primary screen of LOPAC1280 at 5 µM with protease, mean of the two replicates
[17] = sheet LOPAC_screen_w_protease, primary screen of LOPAC1280 at 5 µM with protease, replicate 1
[18] = sheet LOPAC_screen_w_protease, primary screen of LOPAC1280 at 5 µM with protease, replicate 2
[19] = sheet LOPAC_screen_w_protease, primary screen of LOPAC1280 at 5 µM with protease, mean of the two replicates, read-out: mean
[20] = sheet LOPAC_screen_w_protease, primary screen of LOPAC1280 at 5 µM with protease, replicate 1, read-out: Replicate_1
[21] = sheet LOPAC_screen_w_protease, primary screen of LOPAC1280 at 5 µM with protease, replicate 2, read-out: Replicate_2
[22] = sheet LOPAC_screen_w_protease, primary screen with protease, mean of two replicates
[23] = sheet LOPAC_screen_w_protease, primary screen with protease, replicate 1
[24] = sheet LOPAC_screen_w_protease, primary screen with protease, replicate 2
[25] = sheet LOPAC_screen_w_protease, LOPAC1280 primary screen with protease, 5 µM compound, mean of the two replicates, read-out: mean
[26] = sheet LOPAC_screen_w_protease, LOPAC1280 primary screen with protease, 5 µM compound, replicate 1, read-out: Replicate_1
[27] = sheet LOPAC_screen_w_protease, LOPAC1280 primary screen with protease, 5 µM compound, replicate 2, read-out: Replicate_2
[28] = sheet LOPAC_screen_w_protease, LOPAC1280 at 5 µM, mean of two replicates
[29] = sheet LOPAC_screen_w_protease, LOPAC1280 at 5 µM, replicate 1
[30] = sheet LOPAC_screen_w_protease, LOPAC1280 at 5 µM, replicate 2
[31] = sheet LOPAC_screen_w_protease, primary screen with protease, compound at 5 µM, mean of two replicates
[32] = sheet LOPAC_screen_w_protease, primary screen with protease, compound at 5 µM, replicate 1
[33] = sheet LOPAC_screen_w_protease, primary screen with protease, compound at 5 µM, replicate 2

CNCCC(Oc1ccc(C(F)(F)F)cc1)c1ccccc1 (stereo not shown) [Fluoxetine hydrochloride]
inhibition at 5 µM [1]: 0.474% | inhibition at 5 µM [2]: 2.07% | inhibition at 5 µM [3]: -1.12%

Nc1nc2ccc(OC(F)(F)F)cc2s1 [Riluzole]
inhibition at 5 µM (LOPAC1280 primary screen with protease, 5 µM compound, replicate 1, read-out: Replicate_1 (LOPAC_screen_w_protease)): 2.44% | inhibition at 5 µM (LOPAC1280 primary screen with protease, 5 µM compound, replicate 2, read-out: Replicate_2 (LOPAC_screen_w_protease)): 0.68% | mean (LOPAC_screen_w_protease) [4]: 1.558

Br.COc1ccc2c(c1)[C@]13CCCC[C@@H]1[C@H](C2)N(C)CC3.O
mean (LOPAC_screen_w_protease) (LOPAC1280 primary screen with protease, 5 µM compound, mean of the two replicates): 1.973 | Replicate_1 (LOPAC_screen_w_protease) [5]: 1.427

N[C@@H](CS(=O)O)C(=O)O [L-Cysteinesulfinic Acid]
mean (LOPAC_screen_w_protease) [4]: 1.669 | Replicate_1 (LOPAC_screen_w_protease) [5]: 1.739 | Replicate_2 (LOPAC_screen_w_protease) [6]: 1.598

CC(COc1ccc(/C=C/c2ccccc2)cc1)[N+](C)(C)C.[I-] (stereo not shown)
mean [7]: 5.814 | Replicate_1 [8]: 7.703 | Replicate_2 [9]: 3.926

NC(=O)CI [Iodoacetamide]
mean (LOPAC screen with protease) [10]: 17.6073 | Replicate_1 (LOPAC screen with protease) [11]: 16.5057 | Replicate_2 (LOPAC screen with protease) [12]: 18.7088

O=c1ccn([C@@H]2O[C@H](COP(=O)([O-])OP(=O)([O-])O)[C@@H](O)[C@H]2O)c(=O)[nH]1.[Na+].[Na+] [Uridine 5'-diphosphate sodium]
mean [13]: -0.3913 | Replicate_1 [14]: -1.155 | Replicate_2 [15]: 0.3722

O=c1[nH]c(=O)n([C@H]2C[C@H](O)[C@@H](CO)O2)cc1/C=C/Br [(E)-5-(2-Bromovinyl)-2'-deoxyuridine]
mean [16]: 3.159 | Replicate_1 [17]: 2.158 | Replicate_2 [18]: 4.161

C=CC1=C(C)c2cc3[nH]c(cc4nc(cc5[nH]c(cc1n2)c(C)c5CCC(=O)O)C(CCC(=O)O)=C4C)c(C)c3C=C [Protoporphyrin IX disodium]
inhibition at 5 µM (read-out: Replicate_1): 2.66% | inhibition at 5 µM (read-out: Replicate_2): 2.42% | inhibition at 5 µM (read-out: mean): 2.54%

CCCC(C(=O)OCCN(CC)CC)(c1ccccc1)c1ccccc1.Cl [SKF-525A hydrochloride]
mean [16]: 3.89 | Replicate_1 [17]: 3.162 | Replicate_2 [18]: 4.618

CC1=NS(=O)(=O)c2cc(Cl)ccc2N1 [Diazoxide]
inhibition at 5 µM [19]: 3.37% | inhibition at 5 µM [20]: 4.67% | inhibition at 5 µM [21]: 2.07%

Br.C[N+](C)(C)CCCCCNCC12CC3CC(CC(C3)C1)C2.[Br-] [IEM-1460]
mean [13]: 0.3994 | Replicate_1 [14]: 0.5263 | Replicate_2 [15]: 0.2724

CC1CCCC=CC2CC(O)CC2C(O)C=CC(=O)O1 (stereo not shown)
mean (LOPAC_screen_w_protease) [4]: 1.348 | Replicate_1 (LOPAC_screen_w_protease) [5]: 0.7493 | Replicate_2 (LOPAC_screen_w_protease) [6]: 1.9466

CC(/C=C/c1cccc(Oc2ccc(F)cc2)c1)N(O)C(N)=O (stereo not shown) [BWB70C]
mean [22]: 2.212 | Replicate_1 [23]: 2.534 | Replicate_2 [24]: 1.889

CCCCCCCCCCCCC/C=C/[C@@H](O)[C@@H](N)CO [Sphingosine]
inhibition at 5 µM (sheet LOPAC_screen_w_protease, primary screen with protease, 5 µM, mean of two replicates, read-out: mean): -0.887% | inhibition at 5 µM (sheet LOPAC_screen_w_protease, primary screen with protease, 5 µM, replicate 1, read-out: Replicate_1): -1.81% | inhibition at 5 µM (sheet LOPAC_screen_w_protease, primary screen with protease, 5 µM, replicate 2, read-out: Replicate_2): 0.0317%

CN1C(C(=O)Nc2ccccn2)=C(O)c2ccccc2S1(=O)=O [Piroxicam]
inhibition at 5 µM (sheet LOPAC_screen_w_protease, primary screen with protease, compound at 5 µM, mean of two replicates, read-out: mean): 3.01% | inhibition at 5 µM (sheet LOPAC_screen_w_protease, primary screen with protease, compound at 5 µM, replicate 1, read-out: Replicate_1): 1.9% | inhibition at 5 µM (sheet LOPAC_screen_w_protease, primary screen with protease, compound at 5 µM, replicate 2, read-out: Replicate_2): 4.12%

COc1cccc2c1[C@@H]1CN(CCCCn3c(=O)[nH]c4c(sc5ncc(-c6ccccc6)nc54)c3=O)C[C@@H]1CO2 [Fiduxosin hydrochloride]
inhibition at 5 µM [19]: 3.27% | inhibition at 5 µM [20]: 3.54% | inhibition at 5 µM [21]: 3.01%

C=C/C(C)=C/[C@@]1(C)SC(=O)C(C)=C1O [Thiolactomycin]
inhibition at 5 µM [25]: 4.16% | inhibition at 5 µM [26]: 2.88% | inhibition at 5 µM [27]: 5.43%

NC/C=C/C(=O)O [(E)-4-amino-2-butenoic acid]
mean (LOPAC_screen_w_protease) [4]: 1.558 | Replicate_1 (LOPAC_screen_w_protease) [5]: 1.878 | Replicate_2 (LOPAC_screen_w_protease) [6]: 1.238

COc1ccc(Cl)cc1C(=O)NCCc1ccc(S(=O)(=O)NC(=O)NC2CCCCC2)cc1 [Glibenclamide]
inhibition at 5 µM [1]: 0.733% | inhibition at 5 µM [2]: 1.31% | inhibition at 5 µM [3]: 0.155%

Cc1cccc(C(=O)NCN2CCN(c3ccccc3C#N)CC2)c1.O=C(O)/C=C\C(=O)O [PD 168,077 maleate]
mean [28]: 1.169 | Replicate_1 [29]: 0.792 | Replicate_2 [30]: 1.545

CN1CCN(C2Cc3ccccc3Sc3ccc(Cl)cc32)CC1.O=C(O)/C=C\C(=O)O (racemic) [(±)-Octoclothepin maleate]
mean [7]: 4.928 | Replicate_1 [8]: 3.609 | Replicate_2 [9]: 6.247

CC(C)(C)NCC(O)COc1cccc2[nH]c(=O)[nH]c12.Cl (racemic) [(±)-CGP-12177A hydrochloride]
mean [28]: 1.308 | Replicate_1 [29]: 3.897 | Replicate_2 [30]: -1.282

Oc1ccc(C2CNCCc3c2cc(O)c(O)c3Cl)cc1 (stereo not shown) [Fenoldopam bromide]
inhibition at 5 µM (read-out: Replicate_1 (LOPAC screen with protease)): 29.5% | inhibition at 5 µM (read-out: Replicate_2 (LOPAC screen with protease)): 23% | inhibition at 5 µM (read-out: mean (LOPAC screen with protease)): 26.2%

COC(=O)[C@H]1[C@H]2C[C@@H]3c4[nH]c5cc(OC)ccc5c4CCN3C[C@H]2C[C@@H](OC(=O)c2cc(OC)c(OC)c(OC)c2)[C@@H]1OC [Reserpine]
inhibition at 5 µM (read-out: Replicate_1 (LOPAC_screen_w_protease)): 2.93% | inhibition at 5 µM (read-out: Replicate_2 (LOPAC_screen_w_protease)): 0.694%

CCN1CCc2nc(N)oc2CC1.Cl.Cl [B-HT 933 dihydrochloride]
mean [31]: 2.82 | Replicate_1 [32]: 2.163 | Replicate_2 [33]: 3.476

Cl.Fc1ccc(C(OCCCc2c[nH]cn2)c2ccc(F)cc2)cc1
mean [31]: 2.8 | Replicate_1 [32]: 1.774 | Replicate_2 [33]: 3.825

C[C@](N)(Cc1ccc(O)c(O)c1)C(=O)O [L-alpha-Methyl DOPA]
mean (LOPAC screen with protease) [10]: 7.163 | Replicate_1 (LOPAC screen with protease) [11]: 6.315 | Replicate_2 (LOPAC screen with protease) [12]: 8.01

CC(=N)NCCCC[C@H](N)C(=O)O.Cl [L-N6-(1-Iminoethyl)lysine hydrochloride]
mean [22]: 2.233 | Replicate_1 [23]: 3.474 | Replicate_2 [24]: 0.9911

O=C(N[C@@H](Cc1ccccc1)C(=O)CCl)OCc1ccccc1 [Z-L-Phe chloromethyl ketone]
inhibition at 5 µM (sheet LOPAC_screen_w_protease, primary screen at 5 µM, mean of two replicates, read-out: mean (LOPAC screen with protease)): 100% | inhibition at 5 µM (sheet LOPAC_screen_w_protease, primary screen at 5 µM, replicate 1, read-out: Replicate_1 (LOPAC screen with protease)): 100% | inhibition at 5 µM (sheet LOPAC_screen_w_protease, primary screen at 5 µM, replicate 2, read-out: Replicate_2 (LOPAC screen with protease)): 100%

O=C(O)c1cc(O)c2ccc(Cl)cc2n1 [7-Chlorokynurenic acid]
inhibition at 5 µM [19]: 3.48% | inhibition at 5 µM [20]: 3.97% | inhibition at 5 µM [21]: 2.98%

CC(COc1ccccc1)N(CCCl)Cc1ccccc1 (stereo not shown) [Phenoxybenzamine hydrochloride]
inhibition at 5 µM [25]: 4.33% | inhibition at 5 µM [26]: 4.24% | inhibition at 5 µM [27]: 4.41%

CC#C[C@]1(O)CC[C@H]2[C@@H]3CCC4=CC(=O)CCC4=C3[C@@H](c3ccc(N(C)C)cc3)C[C@@]21C [Mifepristone]
inhibition at 5 µM [25]: 4.62% | inhibition at 5 µM [26]: 3.53% | inhibition at 5 µM [27]: 5.7%

C#CCN[C@H](C)Cc1ccccc1.Cl [R-(-)-Desmethyldeprenyl hydrochloride]
Replicate_1 (LOPAC_screen_w_protease): 3.419 | Replicate_2 (LOPAC_screen_w_protease): 0.5348 | mean (LOPAC_screen_w_protease): 1.9771
